A short description of the data set: Human HepG2 cell viability assay in 384 well format. The format is toxicity, cell-based. More on the design: dose 125 nL, time 70.5 hour; concentration not given beside the values. The note with it: HepG2 cells, read-out: Inhibition.
For `O=C1CCC2(CCCN(c3ncc(Cl)cc3F)C2)CN1CC1CC1` (stereo unspecified), the cytotoxicity at 70.5 h is -1.6%.

On to `CCc1ncc2c(n1)CN(Cc1nc3c(F)cccc3[nH]1)CC2`, for which the cytotoxicity at 70.5 h is -5.3%.

`CSCCCN1CCCC(Cn2ccnc2)C1` (stereo unspecified): the cytotoxicity at 70.5 h is -11.5%.

With `CCOc1cc(=O)n2c(c1C(=O)OCc1ccc(C)cc1)CCCC2`, the cytotoxicity at 70.5 h stood at 24.4%.

On to `Cc1ncccc1Oc1nccnc1C1CCN(S(C)(=O)=O)CC1`, for which the cytotoxicity at 70.5 h is -5.66%.

Turning to `CN(C)CCOCC1CN(Cc2ccccn2)Cc2nnn(C)c21` (stereo unspecified), the cytotoxicity at 70.5 h amounted to 0.965%.

Regarding `COc1ccccc1C(NC(=O)NC1CC1)c1noc(C)n1` (stereo unspecified), the cytotoxicity at 70.5 h is -9%.

On to `COc1ncccc1CNC(=O)C1CC(=O)N(C)C1` (stereo unspecified), for which the cytotoxicity at 70.5 h came to 0.32%.

Regarding `c1ccc(CNC[C@H]2Cn3ccnc3CO2)cc1`, the cytotoxicity at 70.5 h was determined as 4.33%.

As for `CC(C)CCC(=O)NC(C#N)CC(C)C` (stereo unspecified), the cytotoxicity at 70.5 h was 3.54%.

For `O=C(NCC(O)c1cccs1)c1cccc(Cl)c1` (stereo unspecified), the cytotoxicity at 70.5 h is -2.42%.

`c1ccc(CN2CCC(c3nccnc3-n3ccnc3)CC2)cc1`: the cytotoxicity at 70.5 h is -14.9%.

`CCc1noc(CS(=O)(=O)Cc2ccccc2C)n1`: the cytotoxicity at 70.5 h is 15%.

For the molecule `c1ccc(C2CCN(c3ncnc4c3CCNC4)CC2)cc1`, the cytotoxicity at 70.5 h is -4.79%.

For `COc1cccn(CC(=O)N(C)CCCOc2c(C)cccc2C)c1=O`, the cytotoxicity at 70.5 h stood at 29.5%.

For the molecule `CN(C)CCNC(=O)c1cc(-c2cnc(N3CCOCC3)nc2)cn1C`, the cytotoxicity at 70.5 h was -8.38%.

Turning to `Cc1cc(NCc2ccc(N3CCNC(=O)C3)cc2)nc(C)n1`, the cytotoxicity at 70.5 h was -1.91%.

For the molecule `CCC(C)Oc1cc(C(=O)N(c2cccnc2)C(C)C)ccn1` (stereo unspecified), the cytotoxicity at 70.5 h is 0.858%.

Regarding `NC(=O)NC(=O)CNC1(c2ccc(Cl)cc2)CCCC1`, the cytotoxicity at 70.5 h was -17.2%.

Consider `Cc1sc2nc(CCN)nc(N3CC(N4CCCCC4)C3)c2c1C`, for which the cytotoxicity at 70.5 h was 26%.

As to `CN(Cc1cccnc1)[C@@H]1CN(CC2CC2)[C@@H]2CCCO[C@H]12`, the cytotoxicity at 70.5 h was -2.78%.

Regarding `Cc1cccc(C2CCCN2Cc2nc(N)nc(N(C)C)n2)c1C` (stereo unspecified), the cytotoxicity at 70.5 h was -9.17%.

With `CC(C)c1cc(C(=O)N2C[C@H]3CC[C@@H]2CN(Cc2cscn2)C3)no1`, the cytotoxicity at 70.5 h turned out to be 15.2%.

Take `CC(C)CC(=O)N1CCCC2(CC(C(=O)Nc3ccccc3)=NO2)C1` (stereo unspecified): the cytotoxicity at 70.5 h was -0.967%.

In the case of `CN(C)C(CNC(=O)NCc1cc[nH]n1)c1ccco1` (stereo unspecified), the cytotoxicity at 70.5 h came to 0.0309%.

Regarding `CCN1CCN(CC(O)c2ccc(Br)cc2)CC1` (stereo unspecified), the cytotoxicity at 70.5 h is -1.54%.

`O=C1CCc2cc(NC(=O)C3CCCN3c3nccs3)ccc2N1` (stereo unspecified): the cytotoxicity at 70.5 h was -1.9%.

`CCN(CC)S(=O)(=O)N(C)Cc1ccncc1`: the cytotoxicity at 70.5 h was -8.49%.

Turning to `COCCNC(=O)NCCCOC1CCCc2ccccc21` (stereo unspecified), the cytotoxicity at 70.5 h amounted to 1.91%.

On to `CCn1nc(C)c2ccn(CC(=O)NC(C)C)c(=O)c21`, for which the cytotoxicity at 70.5 h was -2.74%.

For the molecule `O=C(NCC(O)c1ccccc1)Nc1cccs1` (stereo unspecified), the cytotoxicity at 70.5 h amounted to 18.8%.

`Cn1ncc(C(=O)N2CCN(S(C)(=O)=O)CC2)c1Cl`: the cytotoxicity at 70.5 h came to 20.9%.

Take `N#CCCN(CC1CCOC1)Cn1ccc(-c2cccs2)n1` (stereo unspecified): the cytotoxicity at 70.5 h amounted to 8.39%.

Regarding `Cc1nc(C)c(COc2ccc(N(C)S(C)(=O)=O)cc2)s1`, the cytotoxicity at 70.5 h was determined as 2.74%.

As to `CCN1CCC(CC(=O)NCc2nc(C)cc(C)n2)CC1`, the cytotoxicity at 70.5 h was -3.98%.

Turning to `Cc1ccc2cccc(S(=O)(=O)N(C)CC3CCN(C)CC3)c2n1`, the cytotoxicity at 70.5 h is -7.7%.

As to `NC(=O)CC1CCN(CC(O)c2ccc(Br)cc2)CC1` (stereo unspecified), the cytotoxicity at 70.5 h was -6.64%.

With `Cc1ncc(CN2CCN(C(=O)C3CCC3)[C@@H]3CS(=O)(=O)C[C@@H]32)cn1`, the cytotoxicity at 70.5 h is -16.2%.

Regarding `CN(C(=O)Cn1nnnc1C(C)(C)C)c1ccccc1`, the cytotoxicity at 70.5 h is -19.5%.

For the molecule `O=C(c1cccnc1N1CCOCC1)N1CCCC(n2ccnc2)C1` (stereo unspecified), the cytotoxicity at 70.5 h is -6.03%.

For `COCC(=O)NC(C)Cc1cccc(OC)c1` (stereo unspecified), the cytotoxicity at 70.5 h worked out at 0.122%.

Source of the values: ChEMBL document CHEMBL3507680, “University of Dundee, Gates Library screen for HepG2 cell viability”.
